Results: US20250275993A1, “GLYCOSYLATION INHIBITORS AS THERAPEUTICS FOR STROKE” (The Regents of the University of California, priority 2022, published 2025)

Columns and labels:
α-glucosidase = α-glucosidase activity assay; assay type: biochemical, Saccharomyces cerevisiae; conditions: up to 2 mM
Protocol: a-mannosidase activity was measured using substrate p-nitrophenyl α-mannopyranoside (1 mM). Enzyme from Jack Bean (M7257) (final concentration of 0.077 U) was incubated at 37° C. in a final volume of 50 μl of 50 mM potassium phosphate buffer, pH 7.5. α-glucosidase was assayed with substrate p-nitrophenyl a-glucoside (7 mM). Enzyme from Saccharomyces cerevisiae-type 1 (Sigma, G5003) (final concentration of 0.1 U) was incubated at 37° C. in a final volume of 50 μl of PBS, pH 7.5. β-Glucosidase was assayed with substrate 4-nitrophenyl β-D-glucopyranoside (Roche). Enzyme from almond (Sigma, G0395) (final concentration of 0.002 U) was incubated at 37° C. in a final volume of 50 μl of PBS, pH 7.5 […]. The incubation was stopped by addition of an equal volume of acid-based stop solution (R&D systems, 895032). Enzymatic activity was measured at 405 nm. α-glucosidase from Saccharomyces cerevisiae type I (G5003) with p-nitrophenyl α-D-glucopyranoside (Sigma, N1377) as the substrate.

BCEC = BCEC transwell migration assay; assay type: cell-based, bovine; conditions: ManN at 40 μM
Protocol: HUVECs (passage 6-8) were cultured and serum-starved as described in “Western Blots”. Ten thousand cells in […] of EBM-2 medium were then added to the upper chamber of […] pore size cell culture inserts (Falcon) coated with 0.1% gelatin. The lower compartment was filled with […] EBM-2 medium containing various agents. The plates were incubated at 37° C. to allow migration. After 4 hrs, cells were fixed with 4% PFA for 20 min and then stained with crystal violet (Sigma-Aldrich) for 20 min at RT. Migrated cells on the bottom side of the insert membrane were quantified by counting whole area of the insert at 40× magnification. The experiments were carried out in triplicate and repeated three times. BCEC migration was set up similarly, except that wells were coated with FN, cells were suspended in 1% serum media and migration time was 18-24 hrs.

[1] = test system: bovine retinal microvascular endothelial cells (BREC); assay: BREC proliferation assay; assay type: cell-based; conditions: bovine retinal EC
Protocol: Proliferation assays with BCECs and BRECs were performed. Log-phase growing BCECs or BRECs (passage <10) were trypsinized, re-suspended and seeded in 96-well plates (no coating) in low-glucose DMEM supplemented with 10% bovine calf serum, 2 mM glutamine, and antibiotics (growth medium), at a density of 1200-1500 cells per well in 200 μl volume. All reagents were added at the indicated final concentrations. After 3-6 days, cells were incubated with AlamarBlue for 4 hrs. Fluorescence was measured at 530 nm excitation wavelength and 590 nm emission wavelength. The experiments were repeated at least three times. To create a hypoxic condition, cells were placed in a hypoxia incubator with a mixture of gas consisting of 1% O2, 5% CO2 and 94% N2. On each 96-well plate, untreated and VEGF-treated (10/ng/ml) wells were included to monitor plate-to-plate variations. 20% methanol or 0.05% DMSO served as negative controls. […] Human RMVECs and human adult DMVECs were split into Gelatin-coated 96 wells (2000 cells per well) in low glucose DMEM containing 10% FBS. 1200 cells/well was set up for proliferation assay in low glucose media containing 0.5% FBS. Data was collected at day 4 or 5. HUVEC (p7-10) were grown on gelatin-coated plate until it reached 70-80% confluency.

bovine pituitary cells = assay: Bovine pituitary cell proliferation assay; assay type: cell-based; conditions: alone or in combination with growth factors
Protocol: (§1) Proliferation assays with fibroblasts were done in low-glucose DMEM containing 1% FBS, with or without 10 ng/ml bFGF, or 100 ng/ml human EGF and the assay was ended at day 3. ARPE-19 cells were gently lifted with 0.025% trypsin and plated in RtEGM media (Clonetics) containing 2% FBS, L-glutamine, human bFGF and GA-1000. Once cells were attached to plates, serum-free RtEGM media was used to maintain the cultures. For proliferation assays, 1500 human RPE cells were plated into 96-well plates in low-glucose DMEM containing 1% FBS. A673, U87MG, Calu6 and AML12 cells were grown until confluent and were then harvested and re-suspended in appropriate assay media. For proliferation assays, cells were plated at the density of 1000-2000 cells/well in low-glucose DMEM containing 5% FBS or otherwise stated. Bovine pituitary cells (pituitary folliculostellate cells) were isolated as previously described. For proliferation assays with human epidermal keratinocytes, human DMVECs and human dermal fibroblast cells, 1000 cells/well were plated in low-glucose DMEM containing 1% FBS with or without various growth factors. The assay was ended at day 3 for bovine pituitary cells and at day 4 for all the other cell types. […] Four days later, tumor cell growth was measured by the MTS assay (Promega, Madison, WI), a colorimetric assay that measures metabolic activity of viable cells. […]

[2] = test system: VEGF, VEGFR2 and GLUT1 & 4; assay: Gene expression analysis by real-time Q PCR in BCECs; assay type: cell-based, bovine; conditions: various concentrations of ManN; 4 hours (gene) or 24 hours (protein)
Protocol: RNA was prepared using the RNeasy Mini Kit (Qiagen). Fifty ng of total RNA per reaction was used for the real-time PCR (Taqman) analysis. Reactions were set up in MicroAmp Fast Optical 96-well reaction plate, seal with MicroAmp optical Adhesion film and run on ViiA7 Real time PCR system (Applied Biosystems) and the absolute quantification with standard curve was used with Sequence Detection System (SDS) software. The expression level of each gene was further quantified relative to the housekeeping gene RPL19 in the same sample. Taqman primers and probe mixes were obtained from Thermo Fisher Scientific. Bovine VEGF-A (Bt03213282), bovine RPL19 (Bt03229687) and bovine specific VEGFR2 (Bt03258877), GLUT1 (Bt03215313) and GLUT4 (Bt03215316).

A673 = A673 proliferation assay; assay type: cell-based; conditions: ManN
Protocol: as §1

## N[C@H](C=O)[C@@H](O)[C@H](O)[C@H](O)CO [ManN, 2-Amino-2-deoxy-D-mannose]
α-glucosidase
  effect on α-glucosidase: No effect
BCEC
  additivity with VEGF in BCEC migration: significant additivity with VEGF in promoting BCEC migration
[1]
  additive effects in promoting BREC proliferation: Additive effects
Bovine pituitary cells
  proliferation of bovine pituitary cells: no increases in proliferation
[2]
  transcription of VEGF, VEGFR2, GLUT1 & 4 and total VEGFR2 protein expression: neither transcription of VEGF, VEGFR2 and GLUT] & 4 nor total VEGFR2 protein expression was significantly changed
A673
  growth of A673: did not promote growth
